Reference: US20260200920A1, “SUBSTITUTED AMINOPYRIDINE COMPOUNDS FOR USE AS AKT1 INHIBITORS” (Atavistik Bio, Inc., priority 2023, published 2026)

Columns and labels:
[1] = target: T1, human recombinant kinase full-length AKT1 E17K (Homo sapiens, UniProt P31749, E17K); experiment: AKT1 E17K kinase assay (TR-FRET, Lance); assay type: biochemical; conditions: 0.6 nM AKT1 E17K, 50 nM Ulight-CREBtide, either 50 μM ATP or 2 mM ATP, 60 min at RT
T1 construct: Purified human recombinant kinase full-length AKT1 E17K was expressed in insect cells; made in house; host or cells: insect cells
T1 sequence (P31749 whole entry E17K): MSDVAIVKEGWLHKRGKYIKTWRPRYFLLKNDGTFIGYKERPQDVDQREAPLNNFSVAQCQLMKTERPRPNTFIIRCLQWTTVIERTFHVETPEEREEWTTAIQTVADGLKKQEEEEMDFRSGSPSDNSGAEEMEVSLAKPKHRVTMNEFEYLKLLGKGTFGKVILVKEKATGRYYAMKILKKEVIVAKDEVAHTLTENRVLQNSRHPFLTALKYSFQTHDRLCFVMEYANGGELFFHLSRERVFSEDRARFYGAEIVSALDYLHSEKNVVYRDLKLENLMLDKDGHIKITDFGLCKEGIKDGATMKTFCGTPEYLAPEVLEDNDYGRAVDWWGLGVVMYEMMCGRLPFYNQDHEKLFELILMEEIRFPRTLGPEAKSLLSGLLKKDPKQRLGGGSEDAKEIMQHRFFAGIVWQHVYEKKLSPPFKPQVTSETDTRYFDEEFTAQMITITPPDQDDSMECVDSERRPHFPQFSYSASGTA
Experimental: AKT1 E17K kinase assay: Inhibitory effects of compounds on AKT1 E17K were undertaken in a 10-pt dose response kinase activity assay measuring phospho-peptide product formation based on TR-FRET signal as described in the following paragraph.
(§1) Purified human recombinant kinase full-length AKT1 E17K was expressed in insect cells and activated in vitro by PDPK1. Ulight™-CREBtide (PerkinElmer, catalog number TRF0107) was used as the peptide substrate. The reaction buffer consisted of 50 mM HEPES pH 7.5, 10 mM MgCl2, 0.01% Triton X-100, 0.01% BSA, 2 mM DTT, 0.6 nM AKT1 E17K, 50 nM Ulight™-CREBtide and either 50 μM ATP or 2 mM ATP. The compound solution was prepared as 10 mM DMSO stock. For the assay, a 1.3 serial dilution 10-pt dose response of test compounds, in duplicate, for each concentration were dispensed into a 384-well plate (Corning, catalog number 4513). Final DMSO concentration in the assay was 1%. The enzyme mixture (5 μL, 1.2 nM) were added and the mixture was incubated for 15 min at RT prior to the start of the kinase reaction by the addition of 5 μL substrate mixture (100 nM Ulight™-CREBtide). The reaction was stopped after 60 min of incubation at RT by the addition of 10 μL of Detection Mix (PerkinElmer, #CR97-100) consisting of Europium-anti-phospho-CREB (Ser133) (Perkin Elmer, catalog number TRF0200). Incubation with the detection mix for a further 60 min allowed binding of antibody to the phospho-Ulight™ CREBtide. The fluorescence emissions at 620 nm and 665 nm after excitation at 350 nm was measured using Envision reader. The ratio of the emissions at 665 nm and at 620 nm provided the measure for the amount of phosphorylated CREBtide product of AKT1 E17K kinase activity. To determine the IC50 values, the data was normalized (enzyme reaction without inhibitor=0% inhibition, all other assay components but no enzyme=100% inhibition) and IC50 values were calculated by a 4-parameter fit using an in-house developed protocol.
Table 9 assigns each compound a code for potency in the AKT1 E 17K kinase assay: A, B, or C. According to the code, A represents an IC50 value <500 nM; B represents an IC50 value from ≥500 nM to <2000 nM; and C represents an IC50 value ≥2000 nM.

[2] = target: T2, human recombinant kinase full-length wildtype AKT1 (Homo sapiens, UniProt P31749); experiment: AKT1 kinase assay (wildtype, TR-FRET, Lance); assay type: biochemical; conditions: 0.6 nM wildtype AKT1, 50 nM Ulight-CREBtide, either 50 μM ATP or 2 mM ATP, 60 min at RT
T2 construct: Purified human recombinant kinase full-length wildtype AKT1 was expressed in insect cells; made in house; host or cells: insect cells
T2 sequence (P31749 whole entry): as the sequence (P31749 whole entry E17K) above, with K17E counted along it
Experimental: AKT1 kinase assay: Inhibitory effects of compounds on wildtype AKT1 were undertaken in a 10-pt dose response kinase activity assay measuring phospho-peptide product formation based on TR-FRET signal as described in the following paragraph.
as §1, with “full-length wildtype” for “full-length”, “AKT1” for “AKT1 E17K”, “AKT1,50” for “AKT1 E17K, 50”, “1:3” for “1.3”
The symbol +++ represents an IC50 value <20 μM; the symbol ++ represents an IC50 value from ≥20 μM to 80 μM.

SMILES	IC50 [1]	IC50 [2]
Cc1nc(CN(C)[C@H]2CC[C@H](C(=O)O)CC2)ccc1-n1c(-c2cccnc2N)nc2ccc(-c3ccccc3)nc21 [Compound I-183]	≥ 2000 nM	< 20 µM
Nc1ncccc1-c1nc2ccc(-c3ccccc3)nc2n1-c1ccc(C(=O)N2CCC(C(=O)O)CC2)nc1 [Compound I-22, 1-(5-(2-(2-aminopyridin-3-yl)-5-phenyl-3H-imidazo[4,5-b]pyridin-3-yl)picolinoyl)piperidine-4-carboxylic acid]	≥ 2000 nM	20 to 80 µM
Nc1ncccc1-c1nc2ccc(C3CCCC3)nc2n1-c1ccc(NC(=O)[C@H]2CC[C@H](C(=O)O)CC2)nc1 [Compound I-120, (1r,4r)-4-((5-(2-(2-aminopyridin-3-yl)-5-cyclopentyl-3H-imidazo[4,5-b]pyridin-3-yl)pyridin-2-yl)carbamoyl) cyclohexane-1-carboxylic acid]	500 to 2000 nM	< 20 µM
Nc1ncccc1-c1nc2ccc(-c3ccccc3)nc2n1-c1ccc(C2CN(C[C@H]3CC[C@@H](C(=O)O)CC3)C2)cc1 [Compound I-36, (1s,4s)-4-((3-(4-(2-(2-aminopyridin-3-yl)-5-phenyl-3H-imidazo[4,5-b]pyridin-3-yl)phenyl)azetidin-1-yl)methyl)cyclohexane-1-carboxylic acid]	500 to 2000 nM	< 20 µM
Cc1cc(C2CN(C[C@H]3CC[C@H](C(=O)O)CC3)C2)ccc1-n1c(-c2cccnc2N)nc2ccc(-c3ccccc3)nc21 [Compound I-139, (1r,4r)-4-((3-(4-(2-(2-aminopyridin-3-yl)-5-phenyl-3H-imidazo[4,5-b]pyridin-3-yl)-3-methylphenyl)azetidin-1-yl)methyl)cyclohexane-1-carboxylic acid]	< 500 nM	< 20 µM
C[C@@H]([C@H]1CC[C@H](C(=O)O)CC1)N1CC(c2ccc(-n3c(-c4cccnc4N)nc4ccc(-c5ccccc5)nc43)cc2)C1 [Compound I-60, (1S,4r)-4-((S)-1-(3-(4-(2-(2-aminopyridin-3-yl)-5-phenyl-3H-imidazo[4,5-b]pyridin-3-yl)phenyl)azetidin-1-yl)ethyl)cyclohexane-1-carboxylic acid]	500 to 2000 nM	< 20 µM
Cc1cc(NC(=O)C2CC3(CC(C(=O)O)C3)C2)ccc1-n1c(-c2cccnc2N)nc2ccc(-c3ccccc3)nc21 (stereo not drawn) [Compound I-100, 6-((4-(2-(2-aminopyridin-3-yl)-5-phenyl-3H-imidazo[4,5-b]pyridin-3-yl)-3-methylphenyl)carbamoyl)spiro[3.3]heptane-2-carboxylic acid]	500 to 2000 nM	< 20 µM
NC(=O)N1CCC(CCc2ccc(-n3c(-c4cccnc4N)nc4ccc(-c5ccccc5)nc43)cc2F)CC1 [Compound I-181]	500 to 2000 nM	< 20 µM
CN(CCc1ccc(-n2c(-c3cccnc3N)nc3ccc(-c4ccccc4)nc32)cc1)[C@H]1CC[C@H](C(=O)O)CC1 [Compound I-158]	500 to 2000 nM	< 20 µM
Cc1c(-n2c(-c3cccnc3N)nc3ccc(-c4ccccc4)nc32)ccc(NC(=O)[C@H]2CC[C@H](C(=O)O)CC2)c1F [Compound I-103, (1r,4r)-4-((4-(2-(2-aminopyridin-3-yl)-5-phenyl-3H-imidazo[4,5-b]pyridin-3-yl)-2-fluoro-3-methylphenyl)carbamoyl)cyclohexane-1-carboxylic acid]	≥ 2000 nM	< 20 µM
Nc1ncccc1-c1nc2ccc(-c3ccccc3)nc2n1-c1ccc(NC(=O)C23CC(C(=O)O)(C2)C3)nc1 [Compound I-7, 3-((5-(2-(2-aminopyridin-3-yl)-5-phenyl-3H-imidazo[4,5-b]pyridin-3-yl)pyridin-2-yl)carbamoyl)bicyclo[1.1.1]pentane-1-carboxylic acid]	≥ 2000 nM	20 to 80 µM
Nc1ncccc1-c1nc2ccc(-c3ccccc3)nc2n1-c1ccc(CN2CCC(CC(=O)O)C2)cc1 (stereo not drawn) [Compound I-94, 2-(1-(4-(2-(2-aminopyridin-3-yl)-5-phenyl-3H-imidazo[4,5-b]pyridin-3-yl)benzyl)pyrrolidin-3-yl)acetic acid]	< 500 nM	< 20 µM
Nc1ncccc1-c1nc2ccc(-c3ccccc3)nc2n1-c1ccc(C2CCN(CC3CCC(C(=O)O)CC3)C2)cc1 (stereo not drawn) [Compound I-78, 4-((3-(4-(2-(2-aminopyridin-3-yl)-5-phenyl-3H-imidazo[4,5-b]pyridin-3-yl)phenyl)pyrrolidin-1-yl)methyl)cyclohexane-1-carboxylic acid]	500 to 2000 nM	< 20 µM
CC(C)(C(=O)O)[C@H]1CCN(Cc2ccc(-n3c(-c4cccnc4N)nc4ccc(-c5ccccc5)nc43)cc2)C1 (stereo in doubt) [Compound I-175]	500 to 2000 nM	< 20 µM
Nc1ncccc1-c1nc2ccc(C3CCCCC3)nc2n1-c1ccc(NC(=O)[C@H]2CC[C@H](C(=O)O)CC2)nc1 [Compound I-119, (1r,4r)-4-((5-(2-(2-aminopyridin-3-yl)-5-cyclohexyl-3H-imidazo[4,5-b]pyridin-3-yl)pyridin-2-yl)carbamoyl)cyclohexane-1-carboxylic acid]	500 to 2000 nM	< 20 µM
CC1(C)C[C@@H](C(=O)O)CC[C@@H]1CN1CC(c2ccc(-n3c(-c4cccnc4N)nc4ccc(-c5ccccc5)nc43)cc2)C1 (stereo in doubt) [Compound I-145]	500 to 2000 nM	< 20 µM
Nc1ncccc1-c1nc2ccc(-c3ccccc3)nc2n1-c1ccc(CCN2CCC(C(=O)O)C2)cc1 (stereo not drawn) [Compound I-159]	< 500 nM	< 20 µM
Nc1ncccc1-c1nc2ccc(-c3ccccc3)nc2n1-c1ccc(NC(=O)C2CCCC(C(=O)O)C2)cc1 (stereo not drawn) [Compound I-4, 3-[[4-[2-(2-amino-3-pyridyl)-5-phenyl-imidazo[4,5-b]pyridin-3-yl]phenyl]carbamoyl]cyclohexanecarboxylic acid]	< 500 nM	< 20 µM
Cc1cc(C2CN(CC34CCC(C(=O)O)(CC3)CC4)C2)ccc1-n1c(-c2cccnc2N)nc2ccc(-c3ccccc3F)nc21 [Compound I-200]	500 to 2000 nM	< 20 µM
Nc1ncccc1-c1nc2ccc(-c3ccccc3)nc2n1-c1ccc(CNC(=O)C2CC(=O)CC(=O)C2)cc1 [Compound I-38, N-(4-(2-(2-aminopyridin-3-yl)-5-phenyl-3H-imidazo[4,5-b]pyridin-3-yl)benzyl)-3,5-dioxocyclohexane-1-carboxamide]	< 500 nM	< 20 µM
CC1(C)C[C@H](CN2CC(c3ccc(-n4c(-c5cccnc5N)nc5ccc(-c6ccccc6)nc54)cc3)C2)CC(C)(C)[C@@H]1C(=O)O [Compound I-148]	< 500 nM	< 20 µM
